Values joined by “and” are separate entries in the source; they are usually repeats but may differ in a detail not shown here. Equal entries are not always repeated. Where two headings read alike, the source gives them in different places.
Experiments:
[1] = target: T1, peripheral benzodiazepine binding site (Rattus norvegicus, UniProt P16257); test: In vitro binding, [3H]-PK11195, kidney membrane preparation; conditions: [3H]-PK11195 (2 nM), 4° C., 1 h
T1 construct: diluted kidney membrane preparation (200 μg); from tissue; host or cells: kidney membrane preparation
Protocol: Non-specific binding was determined with PK11195 (10 μM).
(§1) Non-specific binding was determined with Flumazenil (20 μM). In both cases, incubations were terminated by rapid filtration through Whatman GF/B glass fibre. Filters were immediately washed 3 times with 5 mL ice-cold 50 mM Tris/HCl at pH 7.4. Filters were counted in a β-scintillation counter (Packard) to measure the amount of bound radioactivity. The IC50 of the compounds for the peripheral benzodiazepine binding site and the central benzodiazepine receptor were calculated using Kell 6 software.

[2] = target: central benzodiazepine receptors; test: In vitro binding, [3H]-Flumazenil, brain cortex membrane preparation; conditions: [3H]-Flumazenil (2 nM), 25° C., 45 min, read-out: CBR IC50
Protocol: as §1

[3] = Biodistribution of 18F-labelled tracers in rats; format: in vivo; conditions: SD rats; for Biodistribution: Adrenals / Biodistribution: Bladder / Biodistribution: Blood / Biodistribution: Bone / Biodistribution: Brain / Biodistribution: GIT / Biodistribution: Heart / Biodistribution: Kidney / Biodistribution: Liver / Biodistribution: Lungs / Biodistribution: Muscle / Biodistribution: Olfactory bulbs / Biodistribution: Pancreas / Biodistribution: Skin / Biodistribution: Spleen / Biodistribution: Stomach / Biodistribution: Testes / Biodistribution: Thymus / Biodistribution: Thyroid: decay correction not stated
Protocol: [^18F]Fluoride, in the form of H^18F, was produced by the ^18O(p,n)^18F nuclear reaction by bombardment of ^18O-enriched water target. The aqueous [^18F]fluoride solution was added to a 2.5-mL wheaton vial containing dry acetonitrile (1 mL), Kryptofix 2.2.2 (5 mg, 13.3 μmol) and potassium carbonate (2 mg, 14.5 μmol). The solvent was evaporated under a stream of nitrogen at 90° C. with a reducing vacuum. This azeotropic drying was repeated twice by further addition of acetonitrile (2×1 mL). The tosylate precursor 2-(2-(4-(2-tosylethoxy)phenyl)-6-chloroimidazo[1,2-a]pyridin-3-yl)-N,N-diethylacetamide (2 mg, 3.6 μmol) was dissolved in acetonitrile (1 ml) and added to the dried K222.K2CO3.KF complex. Stirring and heating at 90° C. continued for 10 to 15 mins before the reaction mixture was diluted with mobile phase and purified by reverse phase HPLC on an Alltech Alltima, C18, 10μ, 250×22 mm column eluting at 10 mLs/min with 45% acetonitrile, 55% water with 0.1% TFA.
The biodistribution of PBR132* was undertaken in SD rats and analysis up to 4 h p.i. in the brain and peripheral tissues was performed. The specificity and selectivity of the tracer were assessed by pre-treatment with PBR and Central benzodiazepine receptor (CBR) specific ligands (1 mg/kg) 5 min prior to injection of PBR132*.
The biodistribution of PBR 147* was performed in SD rats and brain and peripheral tissues were analysised at 15, 30 min, 1, and 4 h p.i. The specificity and selectivity of the tracer was assessed by pre-treatment of the animals with the PBR ligands PK11195 and Ro 5-4864 and with Flumazenil for CBR at 1 mg/kg 5 min prior to injection of PBR 147*
The biodistribution of PBR102* and PBR111* were performed in SD rats and brain and peripheral tissues analysed at 15, 30 min, 1, and 4 h p.i. The specificity and selectivity of the tracers were assessed by pre-treatment with the PBR ligands PK11195 and Ro 5-4864 and with Flumazenil for CBR at 1 mg/kg 5 min prior to injection of the corresponding tracers.
The specificity and selectivity of the tracers were assessed by pre-treatment with the PBR ligands PK11195 and Ro 5-4864 and with Flumazenil for CBR at 1 mg/kg 5 min prior to injection of the corresponding tracers.

2-(6-chloro-2-(4-methoxyphenyl)imidazo[1,2-b]pyridazin-3-yl)-N,N-diethylacetamide [PBR 133]
IC50 ([1]; read-out: PBR IC50): 32 nM
IC50 [2]: 18.8 nM
LogP HPLC (LogP HPLC; HPLC): 2.35 ± 0.07

CCN(CC)C(=O)Cc1c(-c2ccc(C(C)(C)C)cc2)nc2ccc(F)nn12 [Compound 1, reference compound]
IC50 ([1]; PBR IC50 (nM)): 29 nM
IC50 [2]: 340 nM

CCN(CC)C(=O)Cc1c(-c2ccc(OCCF)cc2)nn2c(C)cc(C)nc12 [PBR099, 2-(2-(4-(2-fluoroethoxy)phenyl)-5,7-dimethylpyrazolo[1,5-a]pyrimidin-3-yl)-N,N-diethylacetamide]
Biodistribution: Adrenals ([3]; 15 min): 5.64 ± 0.53 % ID/g
Biodistribution: Bladder ([3]; 15 min): 0.46 ± 0.18 % ID/g
Biodistribution: Blood ([3]; 15 min): 0.23 ± 0.03 % ID/g
Biodistribution: Bone ([3]; 15 min): 0.64 ± 0.03 % ID/g
Biodistribution: Brain ([3]; 15 min): 0.21 ± 0.01 % ID/g
Biodistribution: GIT ([3]; 15 min): 0.83 ± 0.09 % ID/g
Biodistribution: Heart ([3]; 15 min): 5.86 ± 0.44 % ID/g
Biodistribution: Kidney ([3]; 15 min): 3.9 % ID/g and 3.85 ± 0.24 % ID/g
Biodistribution: Liver ([3]; 15 min): 0.63 ± 0.06 % ID/g
Biodistribution: Lungs ([3]; 15 min): 14.55 ± 1.35 % ID/g
Biodistribution: Muscle ([3]; 15 min): 0.65 ± 0.14 % ID/g
Biodistribution: Olfactory bulbs ([3]; 15 min): 0.35 % ID/g and 0.35 ± 0.03 % ID/g
Biodistribution: Pancreas ([3]; 15 min): 1.70 ± 0.13 % ID/g
Biodistribution: Skin ([3]; 15 min): 0.35 ± 0.04 % ID/g
Biodistribution: Spleen ([3]; 15 min): 4.60 ± 0.29 % ID/g
Biodistribution: Stomach ([3]; 15 min): 0.45 ± 0.18 % ID/g
Biodistribution: Testes ([3]; 15 min): 0.184 ± 0.006 % ID/g
Biodistribution: Thymus ([3]; 15 min): 0.62 ± 0.17 % ID/g
Biodistribution: Thyroid ([3]; 15 min): 6.94 ± 1.04 % ID/g
Biodistribution: Adrenals ([3]; 30 min): 6.6 % ID/g and 6.56 ± 1.20 % ID/g
Biodistribution: Bladder ([3]; 30 min): 0.42 ± 0.08 % ID/g
Biodistribution: Blood ([3]; 30 min): 0.16 ± 0.01 % ID/g
Biodistribution: Bone ([3]; 30 min): 0.70 ± 0.02 % ID/g
Biodistribution: Brain ([3]; 30 min): 0.14 ± 0.01 % ID/g
Biodistribution: GIT ([3]; 30 min): 0.90 ± 0.03 % ID/g
Biodistribution: Heart ([3]; 30 min): 5.59 ± 0.26 % ID/g
Biodistribution: Kidney ([3]; 30 min): 3.62 ± 0.53 % ID/g
Biodistribution: Liver ([3]; 30 min): 0.54 ± 0.18 % ID/g
Biodistribution: Lungs ([3]; 30 min): 8.82 ± 0.53 % ID/g
Biodistribution: Muscle ([3]; 30 min): 0.55 ± 0.03 % ID/g
Biodistribution: Olfactory bulbs ([3]; 30 min): 0.28 ± 0.03 % ID/g
Biodistribution: Pancreas ([3]; 30 min): 1.33 ± 0.16 % ID/g
Biodistribution: Skin ([3]; 30 min): 0.49 ± 0.02 % ID/g
Biodistribution: Spleen ([3]; 30 min): 4.71 ± 0.61 % ID/g
Biodistribution: Stomach ([3]; 30 min): 0.32 ± 0.04 % ID/g
Biodistribution: Testes ([3]; 30 min): 0.209 ± 0.007 % ID/g
Biodistribution: Thymus ([3]; 30 min): 0.66 ± 0.14 % ID/g
Biodistribution: Thyroid ([3]; 30 min): 7.99 ± 1.83 % ID/g
Biodistribution: Adrenals ([3]; 60 min): 7.82 ± 1.73 % ID/g
Biodistribution: Bladder ([3]; 60 min): 0.72 ± 0.17 % ID/g
Biodistribution: Blood ([3]; 60 min): 0.14 ± 0.01 % ID/g
Biodistribution: Bone ([3]; 60 min): 0.79 ± 0.03 % ID/g
Biodistribution: Brain ([3]; 60 min): 0.13 ± 0.02 % ID/g
Biodistribution: GIT ([3]; 60 min): 1.31 ± 0.08 % ID/g
Biodistribution: Heart ([3]; 60 min): 6.45 ± 0.43 % ID/g
Biodistribution: Kidney ([3]; 60 min): 3.53 ± 0.24 % ID/g
Biodistribution: Liver ([3]; 60 min): 0.40 ± 0.05 % ID/g
Biodistribution: Lungs ([3]; 60 min): 5.66 ± 0.56 % ID/g
Biodistribution: Muscle ([3]; 60 min): 0.43 ± 0.02 % ID/g
Biodistribution: Olfactory bulbs ([3]; 60 min): 0.29 ± 0.03 % ID/g
Biodistribution: Pancreas ([3]; 60 min): 1.08 ± 0.19 % ID/g
Biodistribution: Skin ([3]; 60 min): 0.48 ± 0.04 % ID/g
Biodistribution: Spleen ([3]; 60 min): 4.51 ± 0.70 % ID/g
Biodistribution: Stomach ([3]; 60 min): 0.41 ± 0.09 % ID/g
Biodistribution: Testes ([3]; 60 min): 0.266 ± 0.019 % ID/g
Biodistribution: Thymus ([3]; 60 min): 0.77 ± 0.12 % ID/g
Biodistribution: Thyroid ([3]; 60 min): 9.90 ± 3.67 % ID/g
Biodistribution: Bladder ([3]; 4 hours): 0.80 ± 0.11 % ID/g
Biodistribution: Blood ([3]; 4 hours): 0.16 ± 0.01 % ID/g
Biodistribution: Bone ([3]; 4 hours): 1.0 % ID/g and 1.07 ± 0.05 % ID/g
Biodistribution: Brain ([3]; 4 hours): 0.15 ± 0.01 % ID/g
Biodistribution: GIT ([3]; 4 hours): 1.90 ± 0.09 % ID/g
Biodistribution: Heart ([3]; 4 hours): 4.29 ± 0.86 % ID/g
Biodistribution: Kidney ([3]; 4 hours): 2.4 % ID/g and 2.41 ± 0.40 % ID/g
Biodistribution: Liver ([3]; 4 hours): 0.29 ± 0.04 % ID/g
Biodistribution: Lungs ([3]; 4 hours): 2.80 ± 0.51 % ID/g
Biodistribution: Muscle ([3]; 4 hours): 0.30 ± 0.05 % ID/g
Biodistribution: Olfactory bulbs ([3]; 4 hours): 0.31 % ID/g and 0.31 ± 0.05 % ID/g
Biodistribution: Pancreas ([3]; 4 hours): 0.56 ± 0.09 % ID/g
Biodistribution: Skin ([3]; 4 hours): 0.65 ± 0.05 % ID/g
Biodistribution: Spleen ([3]; 4 hours): 2.88 ± 0.56 % ID/g
Biodistribution: Stomach ([3]; 4 hours): 0.79 ± 0.16 % ID/g
Biodistribution: Testes ([3]; 4 hours): 0.349 ± 0.011 % ID/g
Biodistribution: Thymus ([3]; 4 hours): 0.91 ± 0.05 % ID/g
Biodistribution: Thyroid ([3]; 4 hours): 7.97 ± 1.37 % ID/g
Blood activity level / concentration in the blood over the 4 h study period ([3]; throughout 15 min to 4 h): 0.23%
IC50 [2]: > 5000 nM
chromatographic logP (LogP HPLC): 2.54 ± 0.08

CCCN(CCC)C(=O)Cc1c(-c2ccc(OCCF)cc2)nc2ccc(Cl)cn12 [PBR103, 2-(2-(4-(2-fluoroethoxy)phenyl)-6-chloroimidazo[1,2-a]pyridin-3-yl)-N,N-dipropylacetamide]
IC50 ([1]; PBR IC50 (nM)): 51.3 nM
IC50 [2]: 1840 nM
chromatographic logP (LogP HPLC): 3.44 ± 0.11

O=C(Cc1c(-c2ccc(OCCF)cc2)nc2ccc(Cl)cn12)N1CCCC1 [PBR104, 2-(2-(4-(2-fluoroethoxy)phenyl)-6-chloroimidazo[1,2-a]pyridin-3-yl)-1-(pyrrolidin-1-yl)ethanone]
IC50 ([1]; PBR IC50 (nM)): 575 nM
IC50 [2]: 1640 nM
chromatographic logP (LogP HPLC): 2.45 ± 0.08

CN(C)C(=O)Cc1c(-c2ccc(OCCF)cc2)nc2ccc(Cl)cn12 [PBR105, 2-(2-(4-(2-fluoroethoxy)phenyl)-6-chloroimidazo[1,2-a]pyridin-3-yl)-N,N-dimethylacetamide]
IC50 ([1]; PBR IC50 (nM)): 675 nM
IC50 [2]: 1760 nM
chromatographic logP (LogP HPLC): 2.04 ± 0.06

CNC(=O)Cc1c(-c2ccc(OCCF)cc2)nc2ccc(Cl)cn12 [PBR106, 2-(2-(4-(2-fluoroethoxy)phenyl)-6-chloroimidazo[1,2-a]pyridin-3-yl)-N-methylacetamide]
IC50 ([1]; PBR IC50 (nM)): 170 nM
IC50 [2]: 548 nM
chromatographic logP (LogP HPLC): 2.05 ± 0.07

CCN(C)C(=O)Cc1c(-c2ccc(OCCF)cc2)nc2ccc(Cl)cn12 [PBR107, 2-(2-(4-(2-fluoroethoxy)phenyl)-6-chloroimidazo[1,2-a]pyridin-3-yl)-N-ethyl-N-methylacetamide]
IC50 ([1]; PBR IC50 (nM)): 54.8 nM
IC50 [2]: 1390 nM
chromatographic logP (LogP HPLC): 2.34 ± 0.07

CC(C)NC(=O)Cc1c(-c2ccc(OCCF)cc2)nc2ccc(Cl)cn12 [PBR110, 2-(2-(4-(2-fluoroethoxy)phenyl)-6-chloroimidazo[1,2-a]pyridin-3-yl)-N-isopropylacetamide]
IC50 ([1]; PBR IC50 (nM)): 14.1 nM
IC50 [2]: 2740 nM
chromatographic logP (LogP HPLC): 2.74 ± 0.09
